In publication PMC10053369, “Recombinant Analogs of Sea Anemone Kunitz-Type Peptides Influence P2X7 Receptor Activity in Neuro-2a Cells” (Marine Drugs, 2023):
Positions of bridges follow the written chain, without caps; N, C: chain ends. No end group written: not given here.

Legend:
[1] = system: P2X7 in Neuro-2a cells; assay: ATP-induced Ca2+ influx (Fluo-8 AM); type: cell-based, mouse; details: for reduction of calcium level: 30 min pre-incubation, 1 mM ATP
Method: (§1) Neuro-2a neuroblastoma cells (ATCC® CCL-131™) were obtained from American Type Culture Collection (Manassas, VA, USA). The cells were cultivated in DMEM medium (BioloT, St. Petersburg, Russia) supplemented with 10% of fetal bovine serum (BioloT, St. Petersburg, Russia) and 1% penicillin/streptomycin (BioloT, St. Petersburg, Russia) at 37 °C and 5% CO2. Initially, cells were incubated in cultural flasks until sub-confluent (~80%). For testing, Neuro-2a cells were seeded in 96-well plates and experiments were started after 24 h.
Neuro-2a cells were seeded in 96-well plates at a density of 4 × 10^4 cells/well and incubated in DMEM for 24 h at 37 °C, 5% CO2. Then the cells were washed twice with culture medium and loaded with 5 μM Fluo-8 AM (Abcam, Cambridge, UK) dye and 1 μM Pluronic® F-127 (Sigma-Aldrich, St. Louis, MO, USA), and incubated for 40 min at 37 °C in HBSS: 140 mM NaCl, 5 mM KCl, 0.8 mM MgCl2, 2 mM CaCl2, 10 mM glucose, 10 mM HEPES, pH 7.4. Then the cells were washed two times with the same solution but without the fluorescent dye and treated with the studied peptides for 30 min at RT in the dark. In some experiments Ca^2+-free medium was used: 140 mM NaCl, 5 mM KCl, 0.8 mM MgCl2, 10 mM glucose, 10 mM HEPES, 5 mM EGTA, pH 7.4. ATP (1 mM final concentration) was added using a microinjector (20 μL/well) 10 s later the baseline recording and the readings were taken up to 50 s in 1 s intervals. The standard P2X7 inhibitor, A438079 (Sigma-Aldrich, St. Louis, MO, USA), was used as inhibitory control. Ionomycin (Sigma-Aldrich, St. Louis, MO, USA) and BHQ were used to generate a generic calcium signal in cells. 2,5,-di(t-butyl) hydroquinone (BHQ) was synthesized and kindly provided by Dr. Polonik S.N. (PIBOC FEBRAS). Fluo-8 was excited at 485 nm, and the emission at 520 nm was measured with a PHERAstar®FS plate reader (BMG LABTECH, Ortenberg, Germany). The data were processed by MARS Data Analysis v. 3.01R2 (BMG Labtech, Ortenberg, Germany). Mean values and standard error of peak height calcium were calculated.
(§2) All data were obtained in three independent replicates and calculated values were expressed as mean ± standard error of the mean (SEM). The Student’s t-test was performed using SigmaPlot 14.0 (Systat Software Inc., San Jose, CA, USA) to determine statistical significance.

[2] = system: P2X7 in Neuro-2a cells; assay: ATP-induced YO-PRO-1 uptake (P2X7 pore formation); type: cell-based, mouse; details: short-term effect
Method: as §1
Neuro-2a cells were seeded in 96 well plates at a density of 4 × 10^4 cells/well and incubated in DMEM for 24 h, 37 °C, 5% CO2. Then the cells were washed once with HBSS and filled with 180 μL of the same buffer. YO-PRO-1 (Sigma-Aldrich, St. Louis, MO, USA, 5 μM final concentration) was loaded into the wells, the cells were incubated for 15 min at 37 °C. Further, the studied peptides were added to the cells at concentrations of 10, 1, 0.1 and 0.01 μM and incubated for 10 min at 37 °C. After that ATP (4 mM final concentration) was added and the plates were incubated for an additional 10 min. The standard P2X7R inhibitor, A438079 (Sigma-Aldrich, St. Louis, MO, USA), was used as inhibitory control. Then the cells were washed three times with the buffer solution and fluorescence intensity was measured with PHERAstar FS plate reader (BMG, LABTECH, Ortenberg, Germany) at λex = 485 nm and λem= 520 nm in the “End Point” mode. The effectiveness of compounds was evaluated relative to control without ATP.
as §2

[3] = system: P2X7 in Neuro-2a cells; assay: P2X7 immunofluorescence / expression (confocal microscopy); type: cell-based, mouse; details: 10 μM peptide, 24 h
Method: Neuro-2a cells on coverslips were washed once with PBS, fixed with cold 100% methanol for 5 min in an ice bath, and then washed (3 × 5 min) with PBS. For P2X7 receptor immunocytochemistry, cells were blocked with 10% bovine serum in PBS containing 0.1% Triton X-100 (1 h) and incubated with specific to P2X7 primary antibodies (1:1000; orb35965 Biorbyt Ltd., Cambridge, UK) overnight at 4 °C. Cells were washed with PBS (3 × 10 min) and incubated with Alexa Fluor 594-conjugated goat anti-rabbit secondary antibodies (1:200, Abcam plc, Cambridge, UK) for 2 h at room temperature. Cells were washed in PBS (3 × 10 min) before mounting. In control experiments, the primary antibody was omitted, and immunostaining was never observed. Neuro-2a cell fluorescence was studied using an LSM 710 META confocal laser scanning microscope (Carl Zeiss, Göttingen, Germany) equipped with an Ar laser with an effective power of 30 mW. The obtained images were analyzed using the ZEN 2.3 (blue edition) software (Carl Zeiss, Göttingen, Germany).

[4] = system: Kv1.1, Kv1.2, Kv1.3 and Kv1.6 isoforms as well as insect Shaker IR; details: range over channels and both peptides, ref [16],[25]; cited from earlier work
Text: The studied peptides are analogs of sea anemone Kunitz-type peptides and attract our attention due to their wide spectrum of biological activity and ability to interact with important molecular targets.

## RGICSEPKVVGPCKAGLRRFYYDSETGECKPFIYGGCKGNKNNFETLHACRGICRA (disulfide 4-54, 13-37, 29-50 (inferred)) [HCRG1]
[1]; 0.1 μM peptide, mean ± SE, n = 3
  reduction of calcium level: 57.5 ± 11.6%
[1]; 0.1–10 μM peptide
  reduction of calcium level: significantly reduced the calcium level
[1]; short-term effect
  effect on Ca2+ influx (summary in discussion): a significant effect on Ca^2+ influx into cells
[2]
  entry of YO-PRO-1 into cells (summary in discussion): regulating the entry of low molecular weight fluorescent dye YO-PRO-1 into cells
[3]
  amount of P2X7 in Neuro-2a cells: significantly reduced the amount of P2X7 in Neuro-2a cells
[3]; mean ± SE, n = 3, p < 0.05
  decrease in P2X7 fluorescence: 24.1 ± 3.2%
[4]
  IC50: 0.012 to 0.4 µM
